Patent publication US7462600B2, “Macrolides” (Pfizer Inc, priority 2004, dated 2008)
Converted amounts (≈) assume the structure as drawn.

How the values were obtained:
Format in all cases: cell-based
[1] = tested on: Haemophilus influenzae 1218; assay: MIC, microtiter broth dilution (NCCLS M100-S14), H. influenzae 1218 (susceptible); conditions: Haemophilus influenzae 1218
Method in brief: (§1)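 Broth microdilution MICs in microtiter trays, run and interpreted per NCCLS M100-S14. Compounds were dissolved in DMSO as 40 mg/ml stocks.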

[2] = tested on: Streptococcus pyogenes 1079; assay: MIC, microtiter broth dilution (NCCLS M100-S14), S. pyogenes 1079 (ermB); conditions: Streptococcus pyogenes 1079
Method in brief: as §1

[3] = tested on: Streptococcus pneumoniae 1095; conditions: Streptococcus pneumoniae 1095; microtiter broth dilution
Method in brief: as §1

[4] = tested on: Streptococcus pneumoniae 1175; conditions: Streptococcus pneumoniae 1175; microtiter broth dilution
Method in brief: as §1

[5] = tested on: Streptococcus pneumoniae 1016; assay: MIC, microtiter broth dilution (NCCLS M100-S14), S. pneumoniae 1016 (susceptible); conditions: Streptococcus pneumoniae 1016
Method in brief: as §1

Compound | MIC H. influenzae 1218 [1] | MIC S. pyogenes 1079 [2] | MIC S. pneumo. 1095 [3] | MIC S. pneumo. 1175 [4] | MIC S. pneumo. 1016 [5]
CCC1OC(=O)C(C)C(=O)C(C)C(OC2OC(C)CC(N(C)C)C2O)C(C)(OC)CC(C)C(=O)C(C)C2N(C3CN(S(=O)(=O)c4ccc(-c5nc6ccc(C)cc6s5)cc4)C3)C(=O)OC12C (centres unmarked) [Example 3.54, 3-descladinosyl-11,12-dideoxy-4-O-methyl-3-oxo-12,11-(oxycarbonyl-(1-(4-(6-methylbenzo[d]thiazol-2-yl)benzenesulfonyl)-azetidin-3-yl)imino)-erythromycin A] | >64.00 µg/mL | 8 µg/mL (≈ 8.38 µM) | 4 µg/mL (≈ 4.19 µM) | 4 µg/mL (≈ 4.19 µM) | <0.06 µg/mL
CCC1OC(=O)C(C)C(=O)C(C)C(OC2OC(C)CC(N(C)C)C2O)C(C)(OC)CC(C)C(=O)C(C)C2N(C3CN(S(=O)(=O)c4ccc(-n5nccn5)cc4)C3)C(=O)OC12C (centres unmarked) [Example 3.55, 3-descladinosyl-11,12-dideoxy-4-O-methyl-3-oxo-12,11-(oxycarbonyl-(1-(4-(2H-1,2,3-triazol-2-yl)benzenesulfonyl)-azetidin-3-yl)-imino)erythromycin A] | 1 µg/mL (≈ 1.14 µM) | <0.06 µg/mL | <0.06 µg/mL | <0.06 µg/mL | <0.06 µg/mL
CCC1OC(=O)C(C)C(=O)C(C)C(OC2OC(C)CC(N(C)C)C2O)C(C)(OC)CC(C)C(=O)C(C)C2N(C3CN(S(=O)(=O)c4ccc(-c5nnco5)cc4)C3)C(=O)OC12C (centres unmarked) [Example 3.56, 3-descladinosyl-11,12-dideoxy-6-O-methyl-3-oxo-12,11-(oxycarbonyl-(1-(4-(1,3,4-oxadiazol-2-yl)benzenesulfonyl)-azetidin-3-yl)-imino)-erythromycin A] | 1 µg/mL (≈ 1.14 µM) | 0.5 µg/mL (≈ 0.571 µM) | <0.06 µg/mL | <0.06 µg/mL | <0.06 µg/mL
CCC1OC(=O)C(C)C(=O)C(C)C(OC2OC(C)CC(N(C)C)C2O)C(C)(OC)CC(C)C(=O)C(C)C2N(C3CN(S(=O)(=O)c4ccc5nn[nH]c5c4)C3)C(=O)OC12C (centres unmarked) [Example 3.57] | 1 µg/mL (≈ 1.18 µM) | 4 µg/mL (≈ 4.71 µM) | <0.06 µg/mL | 8 µg/mL (≈ 9.42 µM) | <0.06 µg/mL
CCC1OC(=O)C(C)C(=O)C(C)C(OC2OC(C)CC(N(C)C)C2O)C(C)(OC)CC(C)C(=O)C(C)C2N(C3CN(S(=O)(=O)c4cccc(-n5cccn5)c4)C3)C(=O)OC12C (centres unmarked) [Example 3.58, 3-descladinosyl-11,12-dideoxy-6-O-methyl-3-oxo-12,11-(oxycarbonyl-(1-(3-(1H-pyrazol-1-yl)benzenesulfonyl)-azetidin-3-yl)-imino)-erythromycin A] | 1 µg/mL (≈ 1.14 µM) | 4 µg/mL (≈ 4.58 µM) | <0.06 µg/mL | <0.06 µg/mL | <0.06 µg/mL
CCC1OC(=O)C(C)C(=O)C(C)C(OC2OC(C)CC(N(C)C)C2O)C(C)(OC)CC(C)C(=O)C(C)C2N(C3CN(S(=O)(=O)c4cccc(-c5ncno5)c4)C3)C(=O)OC12C (centres unmarked) [Example 3.59] | 16 µg/mL (≈ 18.3 µM) | 64 µg/mL (≈ 73.1 µM) | 8 µg/mL (≈ 9.13 µM) | 8 µg/mL (≈ 9.13 µM) | <0.06 µg/mL
CCC1OC(=O)C(C)C(=O)C(C)C(OC2OC(C)CC(N(C)C)C2O)C(C)(OC)CC(C)C(=O)C(C)C2N(C3CN(S(=O)(=O)c4cccc(-c5nnc(C)o5)c4)C3)C(=O)OC12C (centres unmarked) [Example 3.60, 3-descladinosyl-11,12-dideoxy-6-O-methyl-3-oxo-12,11-(oxycarbonyl-(1-(3-(5-methyl-1,3,4-oxadiazol-2-yl)benzenesulfonyl)-azetidin-3-yl)imino)erythromycin A] | 2 µg/mL (≈ 2.25 µM) | 4 µg/mL (≈ 4.49 µM) | <0.06 µg/mL | 0.12 µg/mL (≈ 0.135 µM) | <0.06 µg/mL
CCC1OC(=O)C(C)C(=O)C(C)C(OC2OC(C)CC(N(C)C)C2O)C(C)(OC)CC(C)C(=O)C(C)C2N(C3CN(S(=O)(=O)c4ccc(-c5nnc(C)o5)cc4)C3)C(=O)OC12C (centres unmarked) [Example 3.61, 3-descladinosyl-11,12-dideoxy-4-O-methyl-3-oxo-12,11-(oxycarbonyl-(1-(4-(5-methyl-1,3,4-oxadiazol-2-yl)benzenesulfonyl)-azetidin-3-yl)-imino)-erythromycin A] | 2 µg/mL (≈ 2.25 µM) | 2 µg/mL (≈ 2.25 µM) | 2 µg/mL (≈ 2.25 µM) | 0.12 µg/mL (≈ 0.135 µM) | <0.06 µg/mL
CCC1OC(=O)C(C)C(=O)C(C)C(OC2OC(C)CC(N(C)C)C2O)C(C)(OC)CC(C)C(=O)C(C)C2N(C3CN(S(=O)(=O)c4cccc(-c5nnco5)c4)C3)C(=O)OC12C (centres unmarked) [Example 3.62, 3-descladinosyl-11,12-dideoxy-6-O-methyl-3-oxo-12,11-(oxycarbonyl-(1-(3-(1,3,4-oxadiazol-2-yl)benzenesulfonyl)-azetidin-3-yl)-imino)erythromycin A] | 2 µg/mL (≈ 2.28 µM) | 8 µg/mL (≈ 9.13 µM) | <0.06 µg/mL | 0.5 µg/mL (≈ 0.571 µM) | <0.06 µg/mL
CCC1OC(=O)C(C)C(=O)C(C)C(OC2OC(C)CC(N(C)C)C2O)C(C)(OC)CC(C)C(=O)C(C)C2N(C3CN(S(=O)(=O)c4cccc(-c5csnn5)c4)C3)C(=O)OC12C (centres unmarked) [Example 3.63, 3-descladinosy-11,12-dideoxy-6-O-methyl-3-oxo-12,11-(oxycarbonyl-(1-(3-(1,2,3-thiadiazol-4-yl)benzenesulfonyl)-azetidin-3-yl)-imino)-erythromycin A] | <0.06 µg/mL | 0.25 µg/mL (≈ 0.28 µM) | <0.06 µg/mL | <0.06 µg/mL | <0.06 µg/mL
CCC1OC(=O)C(C)C(=O)C(C)C(OC2OC(C)CC(N(C)C)C2O)C(C)(OC)CC(C)C(=O)C(C)C2N(C3CN(S(=O)(=O)c4ccc(-n5ccnc5)c(C#N)c4)C3)C(=O)OC12C (centres unmarked) [Example 3.64] | 0.5 µg/mL (≈ 0.556 µM) | 32 µg/mL (≈ 35.6 µM) | <0.06 µg/mL | <0.06 µg/mL | <0.06 µg/mL
CCC1OC(=O)C(C)C(=O)C(C)C(OC2OC(C)CC(N(C)C)C2O)C(C)(OC)CC(C)C(=O)C(C)C2N(C3CN(S(=O)(=O)c4cccc(-c5ncco5)c4)C3)C(=O)OC12C (centres unmarked) [Example 3.65, 3-descladinosyl-11,12-dideoxy-6-O-methyl-3-oxo-12,11-(oxycarbonyl-(1-(3-(oxazol-2-yl)benzenesulfonyl)-azetidin-3-yl)-imino)-erythromycin A] | 0.12 µg/mL (≈ 0.137 µM) | 1 µg/mL (≈ 1.14 µM) | <0.06 µg/mL | <0.06 µg/mL | <0.06 µg/mL
CCC1OC(=O)C(C)C(=O)C(C)C(OC2OC(C)CC(N(C)C)C2O)C(C)(OC)CC(C)C(=O)C(C)C2N(C3CN(S(=O)(=O)c4cccc(-c5cccnn5)c4)C3)C(=O)OC12C (centres unmarked) [Example 3.72, 3-descladinosyl-11,12-dideoxy-4-O-methyl-3-oxo-12,11-(oxycarbonyl-(1-(3-(pyridazin-3-yl)benzenesulfonyl)-azetidin-3-yl)-imino)erythromycin A] | 1 µg/mL (≈ 1.13 µM) | 1 µg/mL (≈ 1.13 µM) | <0.06 µg/mL | <0.06 µg/mL | <0.06 µg/mL
